According to ChEMBL document CHEMBL3739315, “Design, synthesis and biological evaluation of thiourea and nicotinamide-containing sorafenib analogs as antitumor agents” (Medchemcomm, 2015):
pIC50: −log10 of the molar value. Activity calls are given as the source filed them. The calls are words filed in the database; no cut-off is given here.

Tests used:
[1] = Antiproliferative activity against human HCT116 cells by MTT assay; format: functional, cell-based; settings: HCT-116
MDA-MB-231 = test: Antiproliferative activity against human MDA-MB-231 cells by MTT assay; format: functional, cell-based
[2] = Antiproliferative activity against human PC3 cells by MTT assay; format: functional, cell-based; settings: PC-3
HepG2 = test: Antiproliferative activity against human HepG2 cells by MTT assay; format: functional, cell-based
HUVEC [3] = test: Anti-angiogenic activity in human HUVEC assessed as inhibition of tube formation at 0.05 uM by matrigel assay; format: functional, cell-based
HUVEC [4] = test: Anti-angiogenic activity in human HUVEC assessed as inhibition of tube formation at 0.1 uM by matrigel assay; format: functional, cell-based
Thoracic aorta = test: Ex-vivo anti-angiogenic activity in Sprague-Dawley rat thoracic aorta ring assessed as sprouting at 0.05 to 0.1 uM after 6 days; format: functional, tissue-based

Row | Compound | pIC50 (MDA-MB-231) | pIC50 (HepG2) | pIC50 [1] | pIC50 [2] | inhibition (HUVEC [3]) | inhibition (HUVEC [4]) | inhibition (Thoracic aorta)
1 | CNC(=O)c1cc(Oc2cccc(NC(=S)Nc3ccc(Cl)c(C(F)(F)F)c3)c2)ccn1 | 4.37 | 4.60 | 4.84 | 4.79 |  |  | 
2 | CNC(=O)c1ccc(Oc2cccc(NC(=S)Nc3ccc(F)c(F)c3)c2)nc1 | 4.16 | 4.57 | 4.42 | 4.64 |  |  | 
3 | CNC(=O)c1ccc(Oc2cccc(NC(=S)Nc3cccc(C(F)(F)F)c3)c2)nc1 | 4.42 | 4.63 | 4.44 | 4.81 |  |  | 
4 | CNC(=O)c1ccc(Oc2cccc(NC(=S)Nc3ccc(C)cc3)c2)nc1 | 4.53 | 4.18 | 4.27 | < 4.00 |  |  | 
5 | CNC(=O)c1ccc(Oc2cccc(NC(=S)Nc3ccc(Cl)cc3)c2)nc1 | 4.18 | 4.53 | 4.37 | 4.55 |  |  | 
6 | CNC(=O)c1ccc(Oc2cccc(NC(=S)Nc3ccc(OC)cc3)c2)nc1 | 4.50 | 4.07 | 4.30 | < 4.00 |  |  | 
7 | CNC(=O)c1ccc(Oc2cccc(NC(=S)Nc3ccc(C)c(C)c3)c2)nc1 | 4.41 | < 4.00 | 4.32 | 4.17 |  |  | 
8 | CNC(=O)c1ccc(Oc2cccc(NC(=S)Nc3ccc(OC(F)(F)F)cc3)c2)nc1 | 4.25 | < 4.00 | 4.26 | < 4.00 |  |  | 

Stronger by pIC50 (MDA-MB-231), values ahead:

Row | pIC50 (MDA-MB-231) | pIC50 (HepG2) | Compound | pIC50 [1] | pIC50 [2] | inhibition (HUVEC [3]) | inhibition (HUVEC [4]) | inhibition (Thoracic aorta)
9 | 4.88 | 4.69 | CNC(=O)c1ccc(Oc2cccc(NC(=S)Nc3ccc(F)c(C(F)(F)F)c3)c2)nc1 | 4.72 | 5.10 |  |  | 
10 | 4.75 | 4.98 | CNC(=O)c1cc(Oc2ccc(NC(=O)Nc3ccc(Cl)c(C(F)(F)F)c3)cc2)ccn1 [SORAFENIB] | 5.08 | 4.96 | Active | Active | 
11 | 4.66 | 4.37 | CNC(=O)c1ccc(Oc2cccc(NC(=S)Nc3ccc(F)cc3)c2)nc1 | 4.40 | 4.49 |  |  | 
12 | 5.57 | 5.34 | CNC(=O)c1ccc(Oc2cccc(NC(=S)Nc3cc(C(F)(F)F)cc(C(F)(F)F)c3)c2)nc1 | 5.60 | 5.23 | Active |  | Active
13 | 4.68 | 4.67 | CNC(=O)c1ccc(Oc2cccc(NC(=S)Nc3ccc(Cl)cc3Cl)c2)nc1 | 4.68 | 4.71 |  |  | 
14 | 4.54 | < 4.00 | CNC(=O)c1ccc(Oc2cccc(NC(=S)Nc3ccc(F)c(Cl)c3)c2)nc1 | 4.59 | 4.74 |  |  | 
15 | 5.63 | 5.27 | CNC(=O)c1ccc(Oc2cccc(NC(=S)Nc3ccc(Cl)c(C(F)(F)F)c3)c2)nc1 | 5.66 | 5.70 | Active |  | Active
16 | 5.52 | 5.07 | CNC(=O)c1ccc(Oc2cccc(NC(=S)Nc3ccc(Br)c(C(F)(F)F)c3)c2)nc1 | 5.51 | 5.57 |  |  | 
